According to patent EP3334759B1, “LACTOFERRIN FRAGMENT FOR THE USE AS ANTIBACTERIAL AND ANTIVIRAL AGENT” (Farmagens Health Care Srl, priority 2015, dated 2019):
Peptide text beside a SMILES is read from it.

What was measured:
[1] = system: Human red blood cells; assay type: cell-based
Protocol: Human red blood cells from healthy donors have been isolated and used to performed the hemolytic assay. The peptide fragments of lactoferrin of SEQ ID No. 1 and SEQ ID No. 2 at different concentrations (1, 5, 10, 20, 50, 100, 250 mM) were added to the suspension of erythrocytes to a final volume of 100 µl. Samples were incubated under stirring at 37 °C for 60 min. The hemoglobin release was monitored by measuring the absorbance (Abs) of the supernatant at 540 nm. As negative control, i.e. zero hemolysis (blank), red cells resuspended in PBS were used, whereas completely lysed erythrocytes were used as a positive control for 100% hemolysis. The percentage of hemolysis was calculated using the following equation: % Hemolysis = [(SampleAbs−negativecontrolAbs)/(positivecontrolAbs−negativecontrolAbs)] × 100. [formula]

[2] = system: Vero cell line; assay type: cell-based, Cercopithecus aethiops
Protocol: MTT assay: cells of Vero cell line (ATCC CRL-1586™ kidney epithelial cells of Cercopithecus aethiops) were cultivated at the appropriate growth conditions as recommended by the supplier in 96-well plates at a concentration of 2 × 10^4 cells/well and treated with the peptides according to the invention at different concentrations diluted in growth medium (1, 5, 10, 20, 50, 100, 250 mM) for 3, 10 and 24 hours. Subsequently, the medium was aspirated and the cells incubated at 37 °C for 3 hours with 10 µl of MTT (bromide of 3-(4,5-dimethylthiazol-2-yl)-2,5-diphenyltetrazolium), a vital dye able to enter the mitochondria and be metabolized by succinate dehydrogenase complex to formazan salts, determining a violet coloration in those cells. Afterward, the supernatant was discharged and isopropanol (100 uL) was added to each well to dissolve the produced salts. The reaction was allowed to proceed by incubation at room temperature in tilting agitation for 20 minutes, then spectrophotometric reading was performed at 570nm to assess cell viability in terms of proliferative inhibition and cell growth.

Structure (SMILES) | toxicity towards the erythrocytes (hemolysis) [1] | toxicity, measured as a function of cellular integrity [2] [%]
CC(C)C[C@H](NC(=O)[C@H](CCC(N)=O)NC(=O)[C@H](Cc1ccccc1)NC(=O)[C@H](CO)NC(=O)[C@H](CCCNC(=N)N)NC(=O)[C@H](CO)NC(=O)[C@H](CCCCN)NC(=O)[C@H](CC(N)=O)NC(=O)[C@H](CCCCN)NC(=O)CNC(=O)[C@H](Cc1ccccc1)NC(=O)[C@@H](N)CCCCN)C(=O)N[C@@H](Cc1ccccc1)C(=O)NCC(=O)N[C@@H](CO)C(=O)N1CCC[C@H]1C(=O)N1CCC[C@H]1C(=O)NCC(=O)N[C@@H](CCC(N)=O)C(=O)N[C@@H](CCCNC(=N)N)C(=O)N[C@@H](CC(=O)O)C(=O)N[C@@H](CC(C)C)C(=O)N[C@@H](CC(C)C)C(=O)N[C@@H](Cc1ccccc1)C(=O)N[C@@H](CCCCN)C(=O)N[C@@H](CC(=O)O)C(=O)O [SEQ ID No. 1] (H-KFGKNKSRSFQLFGSPPGQRDLLFKD-OH) | not toxic | ≤ 20
CC(C)C[C@H](NC(=O)CNC(=O)[C@H](CS)NC(=O)[C@H](CCCCN)NC(=O)CNC(=O)[C@H](C)NC(=O)[C@@H](NC(=O)[C@@H](N)Cc1ccc(O)cc1)[C@@H](C)O)C(=O)N[C@H](C(=O)N1CCC[C@H]1C(=O)N[C@H](C(=O)N[C@@H](CC(C)C)C(=O)N[C@@H](C)C(=O)N[C@@H](CCC(=O)O)C(=O)N[C@@H](CC(N)=O)C(=O)N[C@@H](CCCNC(=N)N)C(=O)N[C@@H](CCCCN)C(=O)N[C@H](C(=O)N[C@@H](CO)C(=O)N[C@@H](CCCCN)C(=O)N[C@@H](Cc1ccc(O)cc1)C(=O)N[C@@H](CO)C(=O)N[C@@H](CO)C(=O)N[C@@H](CC(C)C)C(=O)N[C@@H](CC(=O)O)C(=O)N[C@@H](CS)C(=O)N[C@H](C(=O)N[C@@H](CC(C)C)C(=O)N[C@@H](CCCNC(=N)N)C(=O)N1CCC[C@H]1C(=O)O)C(C)C)[C@@H](C)O)C(C)C)C(C)C [SEQ ID No. 2] (H-YTAGKCGLVPVLAENRKTSKYSSLDCVLRP-OH) | not toxic | ≤ 20
